pEC50: −log10 of the molar value.
Biological target: T1, human iNOS (Homo sapiens, UniProt P35228)
T1 construct: expressed in transfected cells; host or cells: HEK293
Experiment: DAN assay of nitric oxide production (hiNOS)
Format: cell-based
Conditions: enzyme expressed in HEK293 cells transiently transfected with human iNOS
Source text: The source of nitric oxide synthase (NOS) enzyme can be generated in several ways including induction of endogenous iNOS using cytokines and/or lipopolysaccharide (LPS) in various cell types known in the art. Alternatively, the gene encoding the enzyme can be cloned and the enzyme can be generated in cells via heterologous expression from a transient or stable expression plasmid with suitable features for protein expression as are known in the art. Enzymatic activity (nitric oxide production) is calcium independent for iNOS, while the constitutive NOS isoforms, nNOS and eNOS, become active with the addition of various cofactors added to cellular media or extract as are well known in the art. Enzymes specified in Table 1 were expressed in HEK293 cells transiently transfected with human iNOS.
A major metabolic pathway for nitric oxide is to nitrate and nitrite, which are stable metabolites within tissue culture, tissue, plasma, and urine (S Moncada, A Higgs, N Eng J Med 329, 2002 (1993)).
The level of nitrate or nitrite in the specimen can be quantified by any method known in the art which provides adequate sensitivity and reproducibility. A variety of protocols have also been described for detecting and quantifying nitrite and nitrate levels in biological fluids by ion chromatography (e.g., A Everett et al., J. Chromatogr. 706, 437 (1995); J M Monaghan et al., J. Chromatogr. 770, 143 (1997)), high-performance liquid chromatography (e.g., M Kelm et al., Cardiovasc. Res. 41, 765 (1999)), and capillary electrophoresis (MA Friedberg et al., J. Chromatogr. 781, 491 (1997)). For example, 2,3-diaminonaphthalene reacts with the nitrosonium cation that forms spontaneously from NO to form the fluorescent product 1H-naphthotriazole. Using 2,3-diaminonaphthalene (“DAN”), researchers have developed a rapid, quantitative fluorometric assay that can detect from 10 nM to 10 μM nitrite and is compatible with a multi-well microplate format. […] DAN reacts with nitrite ion and gives fluorescent naphthotriazole (MC Carré et al., Analusis 27, 835-838 (1999)). Table 1 provides the test results of various compounds of the subject invention using the DAN assay.
A specimen can be processed prior to determination of nitrate or nitrite as required by the quantification method, or in order to improve the results, or for the convenience of the investigator. For example, processing can involve centrifuging, filtering, or homogenizing the sample. If the sample is whole blood, the blood can be centrifuged to remove cells and the nitrate or nitrite assay performed on the plasma or serum fraction. If the sample is tissue, the tissue can be dispersed or homogenized by any method known in the art prior to determination of nitrate or nitrite. It may be preferable to remove cells and other debris by centrifugation or another method and to determine the nitrate or nitrite level using only the fluid portion of the sample, or the extracellular fluid fraction of the sample. The sample can also be preserved for later determination, for example by freezing of urine or plasma samples. When appropriate, additives may be introduced into the specimen to preserve or improve its characteristics for use in the nitrate or nitrite assay.
The “level” of nitrate, nitrite, or other NO-related product usually refers to the concentration (in moles per liter, micromoles per liter, or other suitable units) of nitrate or nitrite in the specimen, or in the fluid portion of the specimen. However, other units of measure can also be used to express the level of nitrate or nitrite. For example, an absolute amount (in micrograms, milligrams, nanomoles, moles, or other suitable units) can be used, particularly if the amount refers back to a constant amount (e.g., grams, kilograms, milliliters, liters, or other suitable units) of the specimens under consideration. A number of commercially available kits can be used. […]

T1 sequence (P35228 whole entry): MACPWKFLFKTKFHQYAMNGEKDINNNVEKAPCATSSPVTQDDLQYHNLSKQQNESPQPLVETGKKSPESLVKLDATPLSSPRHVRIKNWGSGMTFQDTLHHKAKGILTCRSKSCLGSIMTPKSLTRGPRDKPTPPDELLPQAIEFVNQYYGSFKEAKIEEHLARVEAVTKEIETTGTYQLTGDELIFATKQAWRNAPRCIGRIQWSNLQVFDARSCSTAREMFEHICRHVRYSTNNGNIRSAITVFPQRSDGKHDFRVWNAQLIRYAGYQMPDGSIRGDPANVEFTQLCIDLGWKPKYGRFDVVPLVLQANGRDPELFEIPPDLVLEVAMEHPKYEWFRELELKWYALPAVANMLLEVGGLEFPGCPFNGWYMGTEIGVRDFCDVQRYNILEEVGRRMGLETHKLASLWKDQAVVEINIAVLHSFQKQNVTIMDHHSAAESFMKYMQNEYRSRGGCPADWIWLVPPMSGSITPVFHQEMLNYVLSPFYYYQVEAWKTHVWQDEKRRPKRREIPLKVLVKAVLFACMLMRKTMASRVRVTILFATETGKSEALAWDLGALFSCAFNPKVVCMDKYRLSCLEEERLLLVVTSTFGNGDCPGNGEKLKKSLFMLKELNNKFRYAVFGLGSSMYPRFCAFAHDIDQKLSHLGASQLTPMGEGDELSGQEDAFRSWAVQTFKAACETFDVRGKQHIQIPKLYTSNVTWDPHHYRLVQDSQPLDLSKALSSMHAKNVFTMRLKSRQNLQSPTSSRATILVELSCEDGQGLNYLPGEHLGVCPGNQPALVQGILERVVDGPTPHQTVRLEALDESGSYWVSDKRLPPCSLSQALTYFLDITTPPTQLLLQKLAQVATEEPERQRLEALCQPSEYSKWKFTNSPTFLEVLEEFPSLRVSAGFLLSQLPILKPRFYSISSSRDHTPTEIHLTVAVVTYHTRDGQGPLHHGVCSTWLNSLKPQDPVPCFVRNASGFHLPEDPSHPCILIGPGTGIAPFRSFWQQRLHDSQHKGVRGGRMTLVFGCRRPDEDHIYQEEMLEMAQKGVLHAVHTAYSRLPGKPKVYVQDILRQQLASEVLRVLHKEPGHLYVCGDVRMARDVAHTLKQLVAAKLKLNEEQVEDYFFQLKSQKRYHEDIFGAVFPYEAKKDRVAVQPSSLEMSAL

`O=C(c1ccncc1)N(Cc1cc(=O)[nH]c2c(F)cccc12)c1cccc(Cl)c1` [Example 69, N-(3-Chlorophenyl)-N-((8-fluoro-2-oxo-1,2-dihydroquinolin-4-yl)methyl)isonicotinamide] and `Cc1ccc(C(=O)N(Cc2cc(=O)[nH]c3c(F)cccc23)c2cccc(Cl)c2)cc1` [Example 59, N-(3-Chlorophenyl)-N-((8-fluoro-2-oxo-1,2-dihydroquinolin-4-yl)methyl)-4-methylbenzamide] cannot be ordered by pEC50: < 5.30 for the first, < 5.30 for the second.

`Cc1ccccc1C(=O)N(Cc1cc(=O)[nH]c2c(F)cccc12)c1cccc(Cl)c1` [Example 57, N-(3-Chlorophenyl)-N-((8-fluoro-2-oxo-1,2-dihydroquinolin-4-yl)methyl)-2-methylbenzamide] and `N#Cc1cccc(C(=O)N(Cc2cc(=O)[nH]c3c(F)cccc23)c2cccc(Cl)c2)c1` [Example 65, N-(3-Chlorophenyl)-3-cyano-N-((8-fluoro-2-oxo-1,2-dihydroquinolin-4-yl)methyl)benzamide] cannot be ordered by pEC50: < 5.30 for the first, < 5.30 for the second.

`CC(C)C(=O)N(Cc1cc(=O)[nH]c2ccccc12)c1ccccc1` [Example 5, N-((2-Oxo-1,2-dihydroquinolin-4-yl)methyl)-N-phenylisobutyramide] and `CCC(=O)N(Cc1cc(=O)[nH]c2ccccc12)c1ccccc1` [Example 4, N-((2-Oxo-1,2-dihydroquinolin-4-yl)methyl)-N-phenylpropionamide] cannot be ordered by pEC50: < 5.30 for the first, < 5.30 for the second.

`O=C(c1ccco1)N(Cc1cc(=O)[nH]c2ccccc12)c1ccccc1` [Example 1, N-((2-Oxo-1,2-dihydroquinolin-4-yl)methyl)-N-phenylfuran-2-carboxamide] and `O=C(c1cscn1)N(Cc1cc(=O)[nH]c2ccccc12)c1ccccc1` [Example 28, N-((2-Oxo-1,2-dihydroquinolin-4-yl)methyl)-N-phenylthiazole-4-carboxamide] cannot be ordered by pEC50: ≥ 5.30 for the first, < 5.30 for the second.

`Cc1ncsc1C(=O)N(Cc1cc(=O)[nH]c2c(F)c(F)ccc12)c1cc(Cl)ccc1F` [Example 88, N-(3-Chloro-6-fluorophenyl)-N-((7,8-fluoro-2-oxo-1,2-dihydroquinolin-4-yl)methyl)-4-methylthiazole-5-carboxamide] and `Cc1ncsc1C(=O)N(Cc1cc(=O)[nH]c2c(F)c(F)ccc12)c1ccc(F)c(Cl)c1` [Example 181, N-(3-Chloro-4-fluorophenyl)-N-((7,8-fluoro-2-oxo-1,2-dihydroquinolin-4-yl)methyl)-4-methylthiazole-5-carboxamide] cannot be ordered by pEC50: ≥ 5.30 for the first, ≥ 5.30 for the second.

`Cc1cccc2c1nc(C(C)C)n2Cc1cc(=O)[nH]c2c(F)c(F)ccc12` [Example 224, 7,8-Difluoro-4-((2-isopropyl-4-methyl-1H-benzo[d]imidazol-1-yl)methyl)quinolin-2(1H)-one] and `CC(C)c1nn(Cc2cc(=O)[nH]c3c(F)c(F)ccc23)c2ccccc12` [Example 239, 7,8-Difluoro-4-((3-isopropyl-1H-indazol-1-yl)methyl)quinolin-2(1H)-one] cannot be ordered by pEC50: ≥ 5.30 for the first, < 5.30 for the second.

`Cc1nc(N(C)C)sc1C(=O)N(Cc1cc(=O)[nH]c2c(F)cccc12)c1ccc(F)c(Cl)c1` [Example 98, N-(3-Chloro-4-fluorophenyl)-2-(dimethylamino)-N-((8-fluoro-2-oxo-1,2-dihydroquinolin-4-yl)methyl)-4-methylthiazole-5-carboxamide] and `COc1ccc(N(Cc2cc(=O)[nH]c3c(F)c(F)ccc23)C(=O)c2scnc2C)cc1Cl` [Example 176, N-(3-Chloro4-methoxylphenyl)-N-((7,8-fluoro-2-oxo-1,2-dihydroquinolin-4-yl)methyl)-4-methylthiazole-5-carboxamide] cannot be ordered by pEC50: ≥ 5.30 for the first, ≥ 5.30 for the second.

`Cc1nc(S(=O)(=O)N(Cc2cc(=O)[nH]c3c(F)c(F)ccc23)c2cccc(Cl)c2)cn1C` [Example 265, N-(3-Chlorophenyl)-N-((7,8-difluoro-2-oxo-1,2-dihydroquinolin-4-yl)methyl)-1,2-dimethyl-1H-imidazole-4-sulfonamide] and `Cc1nc(C)c(S(=O)(=O)N(Cc2cc(=O)[nH]c3c(F)c(F)ccc23)c2cccc(Cl)c2)s1` [Example 189, N-(3-Chlorophenyl)-N-((7,8-difluoro-2-oxo-1,2-dihydroquinolin-4-yl)methyl)-2,4-dimethylthiazole-5-sulfonamide] cannot be ordered by pEC50: ≥ 5.30 for the first, ≥ 5.30 for the second.

`CC(C)(C)OC(=O)N1CCC(c2nc3ccccc3n2Cc2cc(=O)[nH]c3c(F)c(F)ccc23)CC1` [Example 205, tert-Butyl 4-(1-((7,8-difluoro-2-oxo-1,2-dihydroquinolin-4-yl)methyl)-1H-benzo[d]imidazol-2-yl)piperidine-1-carboxylate] and `CC=C(C)c1nc2ccccc2n1Cc1cc(=O)[nH]c2c(F)c(F)ccc12` (single isomer, unassigned) [Example 210, (E or Z)-4-((2-(But-2-en-2-yl)-1H-benzo[d]imidazol-1-yl)methyl)-7,8-difluoroquinolin-2(1H)-one] cannot be ordered by pEC50: < 5.30 for the first, ≥ 5.30 for the second.

`O=c1cc(Cn2c(CCC3CCCCC3)nc3ccccc32)c2ccc(F)c(F)c2[nH]1` [Example 213, 4-((2-(2-Cyclohexylethyl)-1H-benzo[d]imidazol-1-yl)methyl)-7,8-difluoroquinolin-2(1H)-one] and `O=c1cc(Cn2c(Cc3ccccc3)nc3ccccc32)c2ccc(F)c(F)c2[nH]1` [Example 214, 4-((2-Benzyl-1H-benzo[d]imidazol-1-yl)methyl)-7,8-difluoroquinolin-2(1H)-one] cannot be ordered by pEC50: < 5.30 for the first, ≥ 5.30 for the second.

`O=c1cc(Cn2cnc(-c3ccccc3)c2)c2ccc(F)c(F)c2[nH]1` [Example 260, 7,8-Difluoro-4-((4-phenyl-1H-imidazol-1-yl)methyl)quinolin-2(1H)-one] and `O=c1cc(Cn2c(-c3cscn3)nc3ccccc32)c2ccc(F)c(F)c2[nH]1` [Example 193, 7,8-Difluoro-4-((2-(thiazol-4-yl)-1H-benzo[d]imidazol-1-yl)methyl)quinolin-2(1H)-one] cannot be ordered by pEC50: < 5.30 for the first, < 5.30 for the second.

`O=C(c1cnccn1)N(Cc1cc(=O)[nH]c2ccccc12)c1ccccc1` [Example 36, N-((2-Oxo-1,2-dihydroquinolin-4-yl)methyl)-N-phenylpyrazine-2-carboxamide] and `O=c1cc(CN(c2cccc(Cl)c2)c2nccc3ccccc23)c2cccc(F)c2[nH]1` [Example 78, 4-(((3-Chlorophenyl)(isoquinolin-1-yl)amino)methyl)-8-fluoroquinolin-2(1H)-one] cannot be ordered by pEC50: < 5.30 for the first, < 5.30 for the second.

`Cc1cccc(C)c1-c1nc2ccccc2n1Cc1cc(=O)[nH]c2c(F)c(F)ccc12` [Example 246, 4-((2-(2,6-Dimethylphenyl)-1H-benzo[d]imidazol-1-yl)methyl)-7,8-difluoroquinolin-2(1H)-one] and `Cc1c(-c2nc3ccccc3n2Cc2cc(=O)[nH]c3c(F)c(F)ccc23)ncn1C` [Example 226, 4-((2-(1,5-Dimethyl-1H-imidazol-4-yl)-1H-benzo[d]imidazol-1-yl)methyl)-7,8-difluoroquinolin-2(1H)-one] cannot be ordered by pEC50: < 5.30 for the first, < 5.30 for the second.

`Cc1nc(C)n(Cc2cc(=O)[nH]c3c(F)c(F)ccc23)c1C` [Example 256, 7,8-Difluoro-4((2,4,5-trimethyl-1H-imidazol-1-yl)methyl)quinolin-2(1H)-one] and `O=C(c1nnc[nH]1)N(Cc1cc(=O)[nH]c2c(F)c(F)ccc12)c1cccc(Cl)c1` [Example 168, N-(3-Chlorophenyl)-N-[(7,8-difluoro-2-oxo-1,2-dihydroquinolin-4-yl)methyl]-4H-1,2,4-triazole-3-carboxamide] cannot be ordered by pEC50: < 5.30 for the first, ≥ 5.30 for the second.

For `CC(C)C(=O)N(Cc1cc(=O)[nH]c2c(F)cccc12)c1cccc(Cl)c1` [Example 80, N-(3-Chlorophenyl)-N-((8-fluoro-2-oxo-1,2-dihydroquinolin-4-yl)methyl)isobutyramide], the pEC50 was < 5.30.
